Consider 7 molecules from patent publication US4315022A, “Terminal amino prostaglandin analogues” (Beecham Group Limited, priority 1979, dated 1982).

The subject of assay [1] is 5-hydroxytryptamine induced bronchoconstriction. As to the kind of experiment: Inhibition of 5-hydroxytryptamine induced bronchoconstriction in anaesthetised, artificially respired guinea pig (Konzett-Rossler preparation). It counts as in vivo. The settings on record: Cavia porcellus, intravenous. As to the method:
1. The compounds were examined for their ability to inhibit 5-hydroxytryptamine induced bronchoconstriction in the anaesthetised, artificially respired guinea pig (Konzett-Rossler preparation). The compounds were administered intravenously.

The test system of assay [2] is bronchoconstriction induced by an histamine aerosol. As to the kind of experiment: Protection of conscious guinea pigs against bronchoconstriction induced by histamine aerosol (Herxheimer test). Type of assay: in vivo, guinea pig. The note with it: 10 μg/ml, 2 minutes after dosing. As to the method: 2. The compounds were examined for their ability to protect conscious guinea pigs against bronchoconstriction induced by an histamine aerosol (Herxheimer test). In these experiments the compounds were administered by aerosol.

Each structure is given as a SMILES string.

The term ED50 denotes the dose at which the effect has come halfway, by size or by number of responders. In assay [1], `CCCCCCC(C)(O)CCN1C(=O)N(C)C(=O)C1CCCCCCCN` (stereo not drawn) [Compound 1, 1-(3'-hydroxy-3'-methyl-n-nonyl)-3-methyl-5-(7"-amino-n-heptyl)-hydantoin] yielded a median effective dose (ED50) of 0.0023 mg/kg.
Consider `CCCCCCC(C)(O)CCN1C(=O)N(C)C(=O)C1CCCCCCC(N)=NO` (stereo not drawn) [Compound 2, 1-(3'-hydroxy-3'-methyl-n-nonyl)-3-methyl-5-(6"-amidoxyl-n-hexyl)-hydantoin], for which the ED50 in assay [1] came out at 0.032 mg/kg. The “increase in pre-convulsive coughing time” value in assay [2] turned out to be 47.5%.
Taken in the same sequence, the figures for `CCCCCCC(C)(O)CCN1C(=O)N(C)C(=O)C1CCCCCCC(N)=O` (stereo not drawn) [Compound 3, 1-(3'-hydroxy-3'-methyl-n-nonyl)-3-methyl-5-(6"-amidoyl-n-hexyl) hydantoin] were 0.108 mg/kg and 107%.
On to `CCCCCCC(C)(O)CCN1C(=O)N(C)C(=O)C1CCCCCCCNCCC(=O)OC` (stereo not drawn) [Compound 5, 1-(3'-hydroxy-3'-methyl-n-nonyl)-3-methyl-5-(7"-(2'''-methoxycarbonylethyl)amino-n-heptyl) hydantoin], for which the ED50 in assay [1] is 0.095 mg/kg.
Still for that read-out and setting: the same measure for `CCCCCCC(C)(O)CCN1C(=O)N(C)C(=O)C1CCCCCCCN(CCC(=O)OC)CCC(=O)OC` (stereo not drawn) [Compound 6]: 0.079 mg/kg; for `CCCCCCC(C)(O)CCN1C(=O)N(C)C(=O)C1CCCCCCCNCC(=O)OC` (stereo not drawn) [Compound 9, 1-(3'-hydroxy-3'-methyl-n-nonyl)-3-methyl-5-5-[7'-(N-methoxycarbonylmethyl)amino-n-heptyl]-hydantoin]: 0.066 mg/kg.
Still for that read-out and setting: the same measure for `CCCCCCC(C)(O)CCN1C(=O)N(C)C(=O)C1CCCCCCCN(CC(=O)OC)CC(=O)OC` (stereo not drawn) [Compound 10, 1-(3'-hydroxy-3'-methyl-n-nonyl)-3-methyl-5-{7'-[N,N-bis(methoxycarbonylmethyl)amino]-n-heptyl}hydantoin]: 0.0805 mg/kg.
